Test results as given in patent US8067039B2, “Extract of plant Dendrobii caulis and preparing process thereof” (National Yang-Ming University, priority 2003, dated 2011).

System: RPE cell
Assay: Proteolytic activity of cultured RPE cell extracts on AGE-BSA (electrophoresis, ImageQuant)
Format: cell-based, bovine
Details: 50 ng/ml HGF
Method: 1×10^6 RPE cells are seeded into the 96-well microplate, containing 10% FCS in DMEM, at 37° C., supplied with 5% CO2. After incubation of 48 hrs, five sets of experiment are treated with the Dendrobii Caulis crude extract, in which each set of experiment includes two microplates for different treating time. After treating for 36 or 48 hrs, 0.01% EDTA is added into the microplate for harvesting the cells, and then the cells are suspended in the […]. Then, the cell solution is centrifuged for 5 min at 1200 rpm, and the cells are suspended back into 10 ml DEME twice. Then, the cell solution is centrifuged again, and is suspended back again with the 0.7 ml Homogenization buffer (50 mM sodium acetate buffer, pH4.5, 1 mM DTT, 0.15M NaCl, 3 mM NaN3) containing 0.1% TritonX-100. Then, the cell solution is vibrated by a sonicator for 15 sec, four cycles, for breaking the cell completely. […] The protein concentration is detected. […]
1×10^6 RPE cells are seeded into the 96-well microplate, containing 10% FCS in DMEM, at 37° C., supplied with 5% CO2. […] After treating for 36 or 48 hrs, 0.01% EDTA is added into the microplate for harvesting the cells, and then the cells are suspended in the DMEM and the cell number is counted. […]

Substance: HGF: hepatocyte growth factor, used at 50 ng/ml as comparison treatment
- proteolytic activity of cultured RPE cell vs control set (48 hours, FIG. 32): a little bit greater
- amount of AGE-BSA (FIG. 33): obviously decreased
